Laboratory results published in patent US9034791B2, “Method for controlling noxious organisms” (Sumitomo Chemical Company, Limited, priority 2012, dated 2015).

Experiments:
Type in all cases: in vivo
Details in all cases: day 7 after sowing, scale 0 to 100
Ivyleaf morningglory [1] = test: Pot test, herbicidal effect with fludioxonil-treated soybean seeds and soil-applied PPO inhibitor
Experimental: (§1) The evaluation of the herbicidal effect is classified into 0 to 100, in which the numeral “0” indicates no or little difference in the state of germination or growth of test weeds as compared with the untreated weeds at the time of the investigation, and the numeral “100” indicates the complete death of the test plants or the complete suppression of their germination or growth.
(§2) In a plastic cup of 100 mm in inside diameter and 40 mm in height, 14.25 mg of a fludioxonil suspension (a suspension containing 20% of fludioxonil, trade name: Savior flowable, manufactured by Syngenta Japan K. K.) and 40 soybean seeds were placed. The plastic cup was shaken by the hand so that the fludioxonil suspension was attached to the soybean seeds. The weight of 40 soybean seeds was 9.55 g, and the amount of fludioxonil by the above treatment was calculated as 30 g per 100 kg of the soybean seeds.
In the same manner, 151.4 mg of the fludioxonil suspension was attached to 40 soybean seeds. The weight of 40 soybean seeds was 10.1 g, and the amount of fludioxonil by the above treatment was calculated as 300 g per 100 kg of the soybean seeds.
(§3) A soil was packed in a plastic pot of 120 mm in inside diameter×80 mm in height. The above treated soybean seeds were sown in this pot at a rate of two seeds per pot, and the seeds of ivyleaf morningglory were sown at a rate of four seeds per pot. On the day of sowing the soybean seeds and after sowing the soybean seeds, an aqueous diluted solution (113 mg of active ingredient/L or 225 mg of active ingredient/L) of a flumioxazin granular wettable powder (a granular wettable powder containing 51% of flumioxazin, trade name: Valor SX, manufactured by Valent USA), an aqueous diluted solution (226 mg of active ingredient/L or 1130 mg of active ingredient/L) of a sulfentrazone granular wettable powder (a granular wettable powder containing 75% of sulfentrazone, trade name: Cover, manufactured by DuPont), or an aqueous diluted solution (113 mg/L or 226 mg/L) of saflufenacil was uniformly sprayed on the soil surface with a sprayer so as to apply the amount described in Tables 1 to 3. The aqueous diluted solution of saflufenacil was prepared by dissolving a predetermined amount of saflufenacil in acetone containing 2% (w/v) of Tween 20, and diluting this solution with water so as to have an acetone concentration of 10% by volume.
On day 7 after sowing the seeds of soybean and ivyleaf morningglory, the herbicidal effect was investigated.

Ivyleaf morningglory [2] = test: Pot test, herbicidal effect with fludioxonil-treated corn seeds and soil-applied PPO inhibitor
Experimental: as §1
as §2, with “19.8” for “14.25”, “corn” for “soybean”, “13.2” for “9.55”
In the same manner, 193.5 mg of the fludioxonil suspension was attached to 40 corn seeds. The weight of 40 corn seeds was 12.9 g, and the amount of fludioxonil by the above treatment was calculated as 300 g per 100 kg of the corn seeds.
as §3, with “treated corn” for “treated soybean”, “the corn” for “the soybean”, “Tables 4” for “Tables 1”, “to 6.” for “to 3.”
On day 7 after sowing the seeds of corn and ivyleaf morningglory, the herbicidal effect was investigated.

Ivyleaf morningglory [3] = test: Pot test, herbicidal effect with fludioxonil-treated cotton seeds and soil-applied PPO inhibitor
Experimental: as §1
In a plastic cup of 100 mm in inside diameter and 40 mm in height, 8.55 mg of a fludioxonil suspension (a suspension containing 20% of fludioxonil, trade name: Savior flowable, manufactured by Syngenta Japan K. K.) and 40 cotton seeds were placed. The plastic cup was shaken by the hand so that the fludioxonil suspension was attached to the cotton seeds. The weight of 40 cottonseeds was 5.7 g, and the amount of fludioxonil by the above treatment was calculated as 30 g per 100 kg of the cotton seeds.
In the same manner, 84.8 mg of the fludioxonil suspension was attached to 40 cotton seeds. The weight of 40 cotton seeds was 5.65 g, and the amount of fludioxonil by the above treatment was calculated as 300 g per 100 kg of the cotton seeds.
as §3, with “above cotton” for “above treated soybean”, “the cotton” for “the soybean”, “Tables 7” for “Tables 1”, “to 9.” for “to 3.”
On day 7 after sowing the seeds of cotton and ivyleaf morningglory, the herbicidal effect was investigated.

[4] = fludioxonil 30 g/100 kg of seeds, PPO inhibitor None
[5] = fludioxonil 300 g/100 kg of seeds, PPO inhibitor None
[6] = fludioxonil None, PPO inhibitor 100 g/ha soil surface
[7] = fludioxonil None, PPO inhibitor 50 g/ha soil surface
[8] = fludioxonil None, PPO inhibitor 500 g/ha soil surface

With N#Cc1c[nH]cc1-c1cccc2c1OC(F)(F)O2 [fludioxonil] the “Herbicidal effect Ivyleaf morningglory” value (Ivyleaf morningglory [1]; [4]) was 0, the “Herbicidal effect Ivyleaf morningglory” value (Ivyleaf morningglory [1]; [5]) was 0 and the “Herbicidal effect Ivyleaf morningglory” value (Ivyleaf morningglory [2]; [4]) was 0. The “Herbicidal effect Ivyleaf morningglory” value (Ivyleaf morningglory [2]; [5]) was 0, the “Herbicidal effect Ivyleaf morningglory” value (Ivyleaf morningglory [3]; [4]) was 0 and the “Herbicidal effect Ivyleaf morningglory” value (Ivyleaf morningglory [3]; [5]) was 0.

C#CCN1C(=O)COc2cc(F)c(N3C(=O)C4=C(CCCC4)C3=O)cc21 [flumioxazin] was tested, and the “Herbicidal effect Ivyleaf morningglory” value (Ivyleaf morningglory [1]; [6]) was 20, the “Herbicidal effect Ivyleaf morningglory” value (Ivyleaf morningglory [2]; [7]) was 20 and the “Herbicidal effect Ivyleaf morningglory” value (Ivyleaf morningglory [2]; [6]) was 50. For the same compound, the “Herbicidal effect Ivyleaf morningglory” value (Ivyleaf morningglory [3]; [6]) was 30.

In the case of CC(C)N(C)S(=O)(=O)NC(=O)c1cc(-n2c(=O)cc(C(F)(F)F)n(C)c2=O)c(F)cc1Cl [saflufenacil], the “Herbicidal effect Ivyleaf morningglory” value (Ivyleaf morningglory [1]; [6]) is reported as 40, the “Herbicidal effect Ivyleaf morningglory” value (Ivyleaf morningglory [2]; [6]) is reported as 30 and the “Herbicidal effect Ivyleaf morningglory” value (Ivyleaf morningglory [3]; [7]) is reported as 30. For the same compound, the “Herbicidal effect Ivyleaf morningglory” value (Ivyleaf morningglory [3]; [6]) was 40.

Cc1nn(-c2cc(NS(C)(=O)=O)c(Cl)cc2Cl)c(=O)n1C(F)F [sulfentrazone] was tested, and the “Herbicidal effect Ivyleaf morningglory” value (Ivyleaf morningglory [1]; [6]) was 20, the “Herbicidal effect Ivyleaf morningglory” value (Ivyleaf morningglory [1]; [8]) was 60 and the “Herbicidal effect Ivyleaf morningglory” value (Ivyleaf morningglory [2]; [6]) was 40. For the same compound, the “Herbicidal effect Ivyleaf morningglory” value (Ivyleaf morningglory [3]; [8]) was 30.
